Measurements published in patent US9326507B2, “Pheromone composition for treating Varroa mite infestation” (Universitaet Hohenheim, priority 2013, dated 2016).

tested on: male Varroa mites; experiment: mating bioassay: male response to a female deutochrysalis dummy; type: in vivo, Varroa destructor; settings: pure substances tested at 1, 10, 100 and 1000 ng
Method: Male and female Varroa mites were obtained from brood combs of heavily infested Apis mellifera colonies at the Apicultural State Institute, University of Hohenheim in Germany. Sexually mature males and freshly molted adult females as well as female deutochrysalis were collected from brood cells 8 to 9 days after capping. Female deutochrysales and freshly molted adult female mites were transferred into queen cell cups (Nicot System®, Karl Jenter, Metzingen) and kept at 28-30° C. for a maximum of 2 hours in order to prevent a decrease in vitality and mobility.
The responses of male Varroa mites to extracts, fractions, and pure substances were measured by using the “mating bioassay”: total extracts, fractions and pure substances were applied to a piece of filter paper (size: 1.5 mm×15 mm) with a 10 μl Hamilton syringe. The filter paper was folded in the middle and placed at the edge of the plastic cell cups (Nicot System®, Karl Jenter, Metzingen, 9 mm inner diameter) that served as a test arena. A living female deutochrysalis was placed at the bottom of the cell cup at 3.5 mm distance to the filter paper. […] After three tests, the dummies were replaced by new ones. The male responses towards the deutochrysalis were categorized as follows: (1) movement towards/around the deutochrysalis and palpating it, (2) mounting the dorsum of the deutochrysalis and (3) copulation attempts on the venter of the deutochrysalis. The duration of each of these behaviours was recorded over a period of 5 minutes using the Observer 2.0 software (Noldus Information Technology). All tests were performed at temperatures of 33-34° C. at the bottom of the test arena.
The extract was applied to the filter paper in doses of 2 female equivalents; in control tests the filter paper was treated with ether only. Pentane and ether fractions were tested in concentrations of 5 female equivalents in the same way. The higher concentration was applied in order to equalize possible losses of active substances during the column fractionation. Single substances that were identified from the active fraction (see 2.6) were purchased (Sigma Aldrich, GC grade), dissolved in diethyl ether and were tested in doses of 1 ng, 10 ng, 100 ng and 1000 ng.
Behavioural data were analyzed with the SPSS 15.0 statistics software. One Way ANOVA was performed to evaluate the male response toward the female deutochrysalis while being exposed to total extracts, fractions or pure substances. Differences between groups with p<0.05 were considered statistically significant.

Compound	copulatory responses / male mating behaviour to pure substances	dosage of maximum copulatory responses [ng]	dosage of lowest copulatory responses [ng]
CCCCCCCCCCCCCCCCCC(=O)O [stearic acid]	lower compared to the other compounds	1	–
CCCCCCCCCCCCCCCCCC(=O)OCC [ethyl stearate]	–	10	–
CCCCCCCCCCCCCCCC(=O)O [palmitic acid]	–	10	–
CCCCCCCC/C=C\CCCCCCCC(=O)OCC [ethyl oleate]	the same trend was evident, albeit without significant differences	–	–
CCCCCCCCCCCCCCCC(=O)OCC [ethyl palmitate]	–	10	–
CCCCCCCC/C=C\CCCCCCCC(=O)O [oleic acid]	highest copulatory responses	10	1000
